Assay [1] relates to STAT3. Description: STAT3 phosphorylation in CD4+ T cells of cardiac-transplanted mice (Western blot). To be noted: 7 days after transplantation. The format is in vivo, mouse. The procedure: (§1) Several key components of T-cell receptor signaling involved in the alloimmune response were examined, and the phosphorylation kinetics following in vitro anti-CD3-Ig/anti-CD28-Ig-mediated CD4+ T-cell activation was evaluated by using the Luminex assay. […] The inventors first confirmed that Colivelin (Col) was able to restore the activation-induced phosphorylation of STAT3 in a dose-dependent manner in oATP-treated CD4+ T cells by Western blotting. […] The effect of oATP and Colivelin on STAT3 phosphorylation and T-cell function was also evaluated following cardiac transplantation.
In general terms: A western blot detects proteins with antibodies after separation by electrophoresis.

Assay [2] has as its system C57BL/6 mice transplanted with bm12 hearts. Description: Chronic cardiac transplant rejection, bm12 donors to C57BL/6 recipients. The format is in vivo, mouse. The method, then: To evaluate the importance of P2X7R signaling and targeting in a clinically relevant setting, the effect of oATP treatment in a model of cardiac transplant chronic rejection (bm12 donors to C57BL/6 recipients) was tested. […] Cardiac allograft pathology was assessed 40 days after transplantation of bm12 hearts into C57BL/6 mice.

Assay [3] concerns splenocytes of islet-transplanted mice. Description: Immune profiling of islet-transplanted mice (ELISPOT, flow cytometry, serum cytokines). The format is in vivo, mouse. To be noted: day 14. The procedure: The effect of oATP treatment on the immune system of transplanted mice was tested. Splenocytes were collected in untreated or oATP-treated mice at day 14 after transplantation and challenged ex vivo in an ELISPOT assay with BALB/c irradiated splenocytes.
Immune profiling of islet-transplanted oATP-treated and untreated mice was performed at day 14 after transplantation.

Assay [4] in a line: Phosphorylation of T-cell signaling molecules in activated CD4+ T cells (Luminex/Milliplex, Western blot). The format is cell-based, mouse. The procedure:
(§2) 60 minutes after anti-CD3-Ig and anti-CD28-Ig mediated activation, cells were lysed and the phosphorylation status of CREB, Erk, Akt, JNK, p38, p70 S6 Kinase, STAT3, and STAT5A/B was assessed using the Millipore Milliplex Cell Signaling Assay. […] Data were confirmed by western blot (FIG. 6D).
as §1

Assay [5] relates to STAT3. Described as above. The format is cell-based, mouse. Conditions: 60 minutes after activation. The procedure: as §2, §1
For assay [6], the system named is C57BL/6 mice transplanted with Bm12 left lung. Briefly: Allogeneic orthotopic left lung transplantation, Bm12 into C57BL/6. The format is in vivo, mouse. The procedure:
The effect of oATP treatment in a model of allogeneic orthotropic left lung transplantation (Bm12 into C57BL/6) was assessed. Graft rejection and tissue fibrosis occurs early after transplantation and it is complete by day 30. […] CT scan was also performed in untreated or oATP-treated mice. Radiological analysis confirmed the preserved alveolar space and thus the functional integrity of oATP-treated compared to untreated mice (FIG. 8). oATP treatment is a rescue therapy for lung rejection. In a complementary experiment, oATP was tested as a rescue therapy for lung rejection. Bm12 left lung was transplanted into C57BL/6 mice and oATP treatment was started at day 10 after transplantation (when graft infiltration and rejection are evident) and mice follow for 30 days.

In assay [7] the test system is P2X7R−/− mice transplanted with BALB/c hearts. Description: Cardiac transplantation into P2X7R-/- mice. The format is in vivo, mouse. Conditions: P2X7R−/− recipients. The source says: oATP has been proposed to exert secondary immunomodulatory mechanisms, primarily related to the inhibition of the remaining P2XsR. To verify that the effect on the prevention of cardiac transplant rejection was predominantly due to P2X7R inhibition, the P2X7R−/− C57BL/6 mouse model was used. BALB/c hearts were transplanted into P2X7R−/− mice, and cardiac transplant survival was compared with that of wild-type recipients.

Assay [8] has as its system naïve CD4+ T-cells. Description: ELISPOT, naïve CD4+ T cells stimulated with anti-CD3-Ig and anti-CD28-Ig. The format is cell-based, mouse. The procedure: The effect of P2X7R targeting was tested by treatment with oATP during T-cell activation. […] Similarly, in a T-cell proliferation assay, CFSE-labeled naïve CD4^+ T-cells were stimulated for 4 days with 0.5 μg/ml anti-CD3-Ig and anti-CD28-Ig; treatment with 100 μM oATP diminished CD4^+ T-cell proliferation (FIG. 5B, right panel) compared to controls (FIG. 5B, left panel).
(§3) To address the mechanisms underlying P2X7R targeting mediated inhibition of cardiac transplant rejection, the inventors analyzed the effect of P2X7R targeting on T-cell activation and Th1/Th17 differentiation in vitro. […] The effect of in vitro P2X7R targeting with oATP during CD4+ T-cell activation was tested. […] Second, in a T-cell proliferation assay, carboxyfluorescein diacetate succinimidyl ester-labeled naïve CD4+ T cells were stimulated for 96 hours with 0.5 μg/mL anti-CD3-Ig and anti-CD28-Ig, and treatment with 100 μM oATP diminished CD4+ T cell proliferation in comparison with controls. […] The inventors next tested the effect of in vitro P2X7R targeting during a Th1/Th17 generation and differentiation assay. […] P2X7R targeting with oATP inhibited Th0 conversion into both Th1 and Th17, as assessed by the percentage of IFN-γ+ and IL-17+ cells, respectively. The inventors show, therefore, that P2X7R targeting through oATP suppresses activation, proliferation, and Th1/Th17 differentiation of CD4+ T cells. The inventors then further investigated the role of P2X7R on T-cell activation and Th1/Th17 differentiation by genetic upregulation of P2X7R. P2X7R cDNA was transduced by using a pMY-IRES-GFP retroviral vector into CD4+ T cells (pmY-P2X7R CD4+ T cells), and upregulation of P2X7R expression was confirmed by Western blot. pmY-P2X7R CD4+ T cells were then challenged with anti-CD3-Ig/anti-CD28-Ig stimulation in an ELISPOT assay. […] In a Th1/Th17 generation assay, pmY-P2X7R CD4+ T cells seemed to display increased differentiation capacity in comparison with pmY-mock CD4+ T cells, as assessed by T-bet and ROR-γ expression.
as §1

Assay [9] relates to C57BL/6 mice transplanted with BALB/c hearts. The format is in vivo, mouse. More on the design: long-term cardiac transplant survival (>100 days), share of recipients: dose or concentration left out as unconfirmed. Conditions: oATP i.p. daily for 14 days.
Procedure: The effect of P2X7R targeting in preventing cardiac transplant rejection was tested using the P2X7R inhibitor oATP.
The effect of P2X7R targeting in preventing cardiac transplant rejection was tested by using the P2X7R inhibitor oATP.
Assay [10] deals with naïve Th0 cells. Description: Th1/Th17 generation and differentiation assay. The format is cell-based, mouse. To be noted: 100 μM oATP. The method, then:
Naïve Th0 cells were differentiated into Th1 or Th17 cells, and IFN-γ^+ and IL-17^+ cells were quantified by flow cytometry. Addition of 100 μM oATP inhibited the conversion of naïve Th0 cells into Th1 (FIGS. 6A-6B) and Th17 cells (FIGS. 6C-6D).
as §3, with “respectively.” for “respectively. The inventors show, therefore, that P2X7R targeting through oATP suppresses activation, proliferation, and Th1/Th17 differentiation of CD4+ T cells. The inventors then further investigated the role of P2X7R on T-cell activation and Th1/Th17 differentiation by genetic upregulation of P2X7R. P2X7R cDNA was transduced by using a pMY-IRES-GFP retroviral vector into CD4+ T cells (pmY-P2X7R CD4+ T cells), and upregulation of P2X7R expression was confirmed by Western blot. pmY-P2X7R CD4+ T cells were then challenged with anti-CD3-Ig/anti-CD28-Ig stimulation in an ELISPOT assay.”

Consider one substance from patent US11452781B2, “Method of preventing and treating type 1 diabetes, allograft rejection and lung fibrosis (by targeting the ATP/P2X7R axis)” (CHILDREN'S MEDICAL CENTER CORPORATION, priority 2013, dated 2022).

“Also recorded” adds a separate entry of the source.

For the substance periodate-oxidized ATP [oATP], the “phosphorylated STAT3 in CD4+ T cells” value in assay [1] was “reduced levels”. Besides, the “cardiac allograft pathology (infiltration, coronaropathy)” value in assay [2] (40 days after transplantation) is “only mild cellular infiltration and the absence of coronaropathy”. Further, in assay [2] (mouse, in vivo), the “IFN-γ-producing cells (ELISPOT)” value is “reduced number” and the “IL-4-producing cells (ELISPOT)” value is recorded as “increased number”. Moreover, in assay [3], the Th17 cells entry was “reduced; also recorded: Slight reductions”, the “number of cells producing IL-4” value is listed as “no effect”, the “percentages of CD8+ T effector cells” value is “Slight reductions” and the “percentages of peripheral CD4+ T effector cells” value is on record as “No significant changes”. Further, in assay [3], the “percentages of regulatory T-cells” value is reported as “No differences” and the “serum IL-6” value is on record as “reduced”. Besides, the “phosphorylation of JNK/SAPK1, p70/S6, or STAT5” value in assay [4] is “unaffected”. Besides, the “activation-induced STAT3 phosphorylation” value in assay [5] is “reduced level; also recorded: prevented phosphorylation of STAT3; also recorded: significant inhibition”. Moreover, in assay [6] (oATP started at day 10), the “lung function (PawP, compliance) after rescue therapy” value is “Better functional preservation of lung compliance”. Further, in assay [6] (oATP started at day 10, followed for 30 days), the “radiological and histological analysis after rescue therapy” value was “reversal of graft rejection and no signs of fibrosis; also recorded: preservation of alveolar space”. Moreover, the “graft fibrosis, inflammation and alveolar spaces” value in assay [6] (treatment from transplantation) is “prevents graft fibrosis; also recorded: highly reduced inflammation and preserved alveolar spaces”. For the same substance, the “ability to prolong cardiac transplant survival” value in assay [7] was “severely altered”. Moreover, the “number of IFN-γ-producing CD4+ T-cells” value in assay [8] (100 μM oATP, 24 hours) is recorded as “significantly reduced; also recorded: suppressed”. Besides, the “expression levels of the P2XsR” value in assay [8] (oATP present during stimulation) is recorded as “not influenced”. Besides, the “long-term cardiac transplant survival (>100 days), share of recipients” value in assay [9] is given as 80%. In assay [10], the “conversion of naïve Th0 cells into Th1 (IFN-γ+ cells)” value is “inhibited” and the “conversion of naïve Th0 cells into Th17 (IL-17+ cells)” value is on record as “inhibited”.
